# Counter-ions that a name gives are not always drawn.
row,melting point,SMILES
1,180 to 185 °C,"CS(=O)(=O)c1ccc2nc(NC(=N)N)nc(-c3ccccc3)c2c1 (as salt: HCl) [Example 6, N-(6-methanesulfonyl-4-phenylquinazolin-2-yl)guanidine]"
2,264 to 267 °C,CN=C(NC)Nc1nc(-c2ccccc2)c2cc(Cl)ccc2n1.Cl
3,175 to 180 °C,"C[S+]([O-])c1ccc2nc(NC(=N)N)nc(-c3ccccc3)c2c1 (stereo not shown) [Example 5, N-(6-methanesulfinyl-4-phenylquinazolin-2-yl)guanidine]"
4,310 °C,Cl.N=C(N)Nc1nc(-c2ccccc2)c2c(O)cccc2n1

# From patent US20040039001A1, “2-guanidino-4-aryl-quinazoline” (priority 2000, published 2004)
